Assay results taken from patent publication US20230255954A1, “INTERLEUKIN 33 (IL-33) INHIBITION FOR TREATMENT OF CANCER, FIBROSIS AND INFLAMMATION” (The General Hospital Corporation, priority 2020, published 2023).

Key:
[1] = system: mouse Il33 gene promoter (IL-33 promoter-luci reporter); assay: IL-33 promoter luciferase screen of FDA-approved Drug Library; type: cell-based; details: 10 μM, 24 hours; IL-33 promoter-luci vs control-luci stable Pam212 cells; 1056 molecules tested
Procedure: Pam212 cells were grown at 37° C. in DMEM (Thermo Fisher Scientific, Waltham, Mass., catalog no. 11995065) supplemented with 10% fetal bovine serum (Thermo Fisher Scientific, catalog no. 26140079), 1× penicillin-streptomycin-glutamine (Thermo Fisher Scientific, catalog no. 10378016), 1×MEM non-essential amino acids solution (Thermo Fisher Scientific, catalog no. 11140050), 1×HEPES (Thermo Fisher Scientific, catalog no. 15630080) and 0.1% 2-Mercaptoethanol (Thermo Fisher Scientific, catalog no. 21985023). PyMT cell lines (derived from a primary breast tumor of MMTV-PyMrg mouse on a C57BL/6 background) were grown at 37° C. in RPMI Medium 1640 (Thermo Fisher Scientific, catalog no. 11875093) supplemented with 10% fetal bovine serum, 1× penicillin-streptomycin-glutamine and 0.1% 2-Mercaptoethanol. IL-33 promoter-luci vector (GeneCopoeia, Rockville, Md., catalog no. MPRM3494-PG02) or Control-luci vector (deletion form of IL-33 promoter region from IL-33 promoter-luci vector) or Poly (I:C) (Invivogen, San Diego, Calif., catalog no. tlrl-pic) in Pam212 cells were performed using Lipofectamine 2000 (Thermo Fisher Scientific, catalog no. 11668019) according to the manufacturer's instructions.
After transfection of plasmids in Pam212 cells, cells were incubated with 3 μg/ml of puromycin (Invivogen, San Diego, Calif., catalog no. ant-pr-1) for positive transfected cell selection. After following 2 days, medium was changed new puromycin contained medium for further selection. After following 2 days, cells were moved to new plate with puromycin contained medium. Puromycin selection was repeated for five times more.
1000 stable cells were seed to 384 wells (Corning, Glendale, Ariz., catalog no. 3570) and each of plate was incubated 24 hours. Following day, 10 μM of FDA-approved Drug Library compounds (Selleckchem, Houston, Tex., catalog no. L1300) were added to each well. After 24 hours, 5 μL of luciferase buffer from Pierce Gaussia luciferase glow assay kit (Thermo Fisher Scientific, Waltham, Mass., catalog no. 16160) were added each well and incubated for 5 min. Each plate was read and measured with luminescence by EnVision 2014 plate reader (Perkin Elmer, Waltham, Mass., catalog no. 2014 EnVision).
To make small molecule screening platform, we generated both IL-33 promoter-luci and control-luci over-expressed stable epithelial cell line (Pam212) by multiple puromycin selection strategy (FIG. 10A). To find molecules that can inhibit IL-33 expression, we tested 1056 FDA-approved small molecules against our reporter cell line. […] To find bona fide inhibitors of IL-33, we checked RNA level of Il33 by qPCR in cells treated with inducer of IL-33 expression, Poly (I:C). After cells were treated by Poly (I:C), RNA level of Il33 was increased compared to carrier group. However, Il33 RNA level was decreased by pitavastatin and tropisetron in Poly I:C-treated cells (FIGS. 10C and D). […] Finally, endogenous IL-33 protein level was decreased after treatment with pitavastatin in a dose-dependent manner (FIG. 10F). Therefore, pitavastatin is a small inhibitor molecule of IL-33.

[2] = system: IRF3 nuclear localization; assay: IRF3 nuclear immunofluorescence staining in poly (I:C) treated Pam212 cells; type: cell-based, mouse; details: compared to only Poly (I:C) treated group
Procedure: For immunofluorescence staining, Pam212 cells were permeated with 1×PBS supplemented with 0.2% Triton X-100 for 5 min. Slides were washed three times for three minutes each in 1×PBS with 0.1% TWEEN20. Slides were blocked with 1% bovine serum albumin and 5% goat serum for 1 hour. The slides were stained overnight at 4° C. with IRF3 antibody. The following day, slides were washed as above and incubated for two hours at room temperature with secondary antibodies conjugated to fluorochromes. Next, slides were incubated with 1:2000 DAPI (Thermo Fisher Scientific, catalog no. D3571) for five minutes at room temperature, then washed as above. Slides were mounted with Prolong Gold Antifade Reagent (Thermo Fisher Scientific, catalog no. P36930).
Next, to investigate the mechanism by which pitavastatin can block IL-33 expression, we first confirmed p-IRF3 expression level because IRF3 is a transcription factor of IL-33 expression. […] However, pitavastatin treatment with Poly (I:C) to Pam212 cells, level of p-IRF3 was decreased (FIG. 11A). […] After IRF3 are phosphorylated by upstream, p-IRF3 can translocate to nucleus as a transcription factor.

[3] = system: IRF3 nuclear translocation; assay: Nuclear fractionation assay, IRF3 in poly (I:C) treated Pam212 cells; type: cell-based, mouse
Procedure: Pam212 cell line was transfected with poly (I:C) using Lipofectamine 2000 according to the manufacturer's instructions. After 8 hours, cells were lysed using Nuclear Extraction Kit (Novus biologicals, Littleton, Colo., catalog no. NBP2-29447). Briefly, cells were washed with 1×PBS supplemented with PMSF (Novus biologicals, catalog no. KC-407). Cells were centrifuged for 5 min at 1,000 rpm. Cell pellets were resuspended in 1× cold hypotonic buffer (Novus biologicals, catalog no. KC-401) and incubated on ice for 15 min. After adding 10 μL of the 10% detergent solution (Novus biologicals, catalog no. KC-403), cell lysates were centrifuged 10 min at 14,000 rpm. The supernatants were kept as cytoplasmic fraction and the cell pellets were resuspended in 100 μL nuclear lysis buffer (Novus biologicals, catalog no. KC-402). Lysates from the pellets were sonicated for few seconds and incubated for 10 min at 4° C. Then, lysates were centrifuged at 14,000 rpm for 10 min. The supernatants were kept as nuclear fraction.
Next, to investigate the mechanism by which pitavastatin can block IL-33 expression, we first confirmed p-IRF3 expression level because IRF3 is a transcription factor of IL-33 expression. […] However, pitavastatin treatment with Poly (I:C) to Pam212 cells, level of p-IRF3 was decreased (FIG. 11A). […]

- IL-33/Control luminescence ratio (inhibitory effect against IL-33 reporter) [1]: small molecule candidates
SMILES: O=C(O)C[C@H](O)C[C@H](O)/C=C/c1c(C2CC2)nc2ccccc2c1-c1ccc(F)cc1 [pitavastatin]
- IRF3 nuclear localization [2]: blocked
- IRF3 localization by nuclear fractionation [3]: remains IRF3 in cytoplasm
